Reference: article PMC8610083 (Clinical cancer research : an official journal of the …, 2021)

Legend:
γ-secretase [1] = target: T1, γ-secretase (Homo sapiens, UniProt P49768); test: Membrane-based radioligand binding assay with [^131I]-PN67; conditions: for Blocking of PN67 binding to γ-secretase: Hela cell membrane, [^131I]-PN67 radioligand
[2] = Ex vivo biodistribution in 4T1-Luc allograft mouse model
γ-secretase [3] = target: γ-secretase (Mus musculus, UniProt P49769); test: PET imaging of 4T1-Luc tumors in BALB/c mice, baseline and blocking; assay type: in vivo; conditions: co-injection 0.2 mg/kg to 30 mg/kg, 2h post injection
γ-secretase [4] = target: T1, γ-secretase; test: In vitro γ-secretase activity assay; assay type: biochemical
[5] = biodistribution, post injection

Compound	Blocking of PN67 binding to γ-secretase (γ-secretase [1])	Ki (γ-secretase [1]) [nM]	IC50 (γ-secretase [4]) [nM]	other results
CCC[C@H](N[C@H]1CCc2cc(F)cc(F)c2C1)C(=O)Nc1cn(C(C)(C)CNCC(C)(C)C)cn1 [PF-03084014]	effectively block PN67 binding to γ-secretase	–	–	–
CC(C)[C@H](O)C(=O)N[C@@H](C)C(=O)N[C@@H]1C(=O)N(C)CCc2ccccc21 [compound 1, Semagacestat]	–	13.6	16.2	Blocking of 4T1 tumor uptake of [^124I]-PN67 (biodistribution) ([2]; co-administered 30mg/kg with the tracer, 2h time point): significant reduction of tracer uptake; Blocking of [^124I]-PN67 PET signal in 4T1-Luc tumor (γ-secretase [3]): blocked in a dose-dependent manner
CC(C)[C@H](O)C(=O)N[C@@H](C)C(=O)N[C@@H]1C(=O)N(C)CCc2ccc(I)cc21 [compound 2, (S)-2-hydroxy-N-((S)-1-(((S)-8-iodo-3-methyl-2-oxo-2,3,4,5-tetrahydro-1H-benzo[d]azepin-1-yl)amino)-1-oxopropan-2-yl)-3-methylbutanamide]	–	4.3	3.5	Half-life in mouse models ([2]; based on ex vivo biodistribution and PET imaging): about 2 hours; Time of maximal radioactivity in large intestine [2, 5]: 2 h; Time of maximal radioactivity in liver [2, 5]: 0.5 h; Time of maximal radioactivity in small intestine [2, 5]: 1 h
O=C(O)CC[C@H]1CC[C@@](c2cc(F)ccc2F)(S(=O)(=O)c2ccc(Cl)cc2)CC1 [MK-0752]	effectively block PN67 binding to γ-secretase	–	–	–
CC(C)(C(=O)NCC(F)(F)C(F)(F)F)C(=O)N[C@@H]1C(=O)Nc2ccccc2-c2ccccc21 [RO-4929097]	effectively block PN67 binding to γ-secretase	–	–	–
